One compound from ChEMBL document CHEMBL1201862, “PubChem BioAssay data set” (2004) can be followed below.

Assay in all cases: growth of human tumour cells (NCI), 48 h
The subject of assay [1] is 786-0.
The subject of assay [2] is CCRF-CEM.
Assay [3] relates to U-251.
In assay [4] the test system is DU-145.
Assay [5] has as its system NCI-H226.
Assay [6] has as its system LOX IMVI.
For assay [7], the system named is MOLT-4.
For assay [8], the system named is NCI-H23.
Assay [9] has as its system MDA-MB-231.
For assay [10], the system named is HT-29.
Assay [11] has as its system COLO 205.
Assay [12] deals with OVCAR-5.
For assay [13], the system named is A549.
Assay [14] deals with MDA-MB-435.
The subject of assay [15] is EKVX.
For assay [16], the system named is NCI-H460.
Assay [17] concerns SK-MEL-28.
Assay [18] has as its system CAKI-1.
Assay [19] concerns Malme-3M.
Assay [20] concerns SR.

Molecules are shown by their SMILES.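 Step 1: Grow cells in 96-well plates. Step 2: Expose to compound for 48 hours at 5 concentrations. Step 3: Interpolate endpoints linearly; if unreached, use highest concentration. The concentration for 50% growth inhibition is given as GI50.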 Calls of active or inactive are those of the source. No stated cut-off is given here; in the data, active = GI50 up to about 1.1 µM and inactive = higher.

For the compound `Oc1c(C(O)(c2ccccc2)c2ccc3ccccc3c2O)ccc2ccccc12`, the GI50 in [1] was 20 µM (inactive); in assay [2], 0.597 µM (active); in [3], 9.31 µM (inactive); in [4], 15.6 µM (inactive); in assay [5], 18.8 µM (inactive); in [6] it was 10.3 µM (inactive). Besides, the GI50 is 1.88 µM (inactive) in assay [7]; 5.12 µM (inactive) in assay [8]; 13.6 µM (inactive) in assay [9]; 17 µM (inactive) in [10]; 17.2 µM (inactive) in assay [11]; 17.8 µM (inactive) in assay [12]. In addition, the GI50 in assay [13] is 12.1 µM (inactive); in assay [14] it was 14.1 µM (inactive); in assay [15], 11.4 µM (inactive); in assay [16] it was 8.91 µM (inactive); in [17], 14.7 µM (inactive); in [18] it was 15 µM (inactive). In addition, the values for the GI50 in assay [19] and in assay [20] were 11.8 µM (inactive) and 1.26 µM (inactive), respectively.
